Patent US6649753B2, “Stable salts of S-adenosyl-L-methionine (SAMe) and the process for their preparation” (Orchid Chemicals & Pharmaceuticals Ltd., priority 2001, dated 2003)

Experiment: Accelerated stability of SAMe salts (ICH guidelines, HPLC)
Type: physicochemical
Details: 40-45° C. with 70-75% Relative Humidity
Procedure: Assessment of stability of the above SAMe salts has been done as per the ICH guidelines at 40-45° C. with 70-75% Relative Humidity and an improved HPLC method has been employed which resolves all the impurities formed on degrading SAMe (Table I). This method of HPLC analysis is the best method known so far to study stability of SAMe and has been validated as per the ICH guidelines. The details of the HPLC method followed and the accelerated stability report are as under:
Column=YMC-ODS-A, 4.6 mm×25 cm, C-18, 5 micron
Buffer=A mixture of 0.02 M citric acid & 0.01 M sodium dihydrogen orthophosphate
Mobile phase=using acetonitrile water with citric acid buffer
Detector=UV at 254 nm wavelength
Flow rate=1.5 ml per min.
Column temperature=25° C.
The percentage of SAMe after storage at the specified temperature was determined using the content of SAMe after storage and the content of SAMe before storage, i.e., initial content of SAMe in the corresponding salt using the following equation: [formula]

SAMe disulfate catechol-3,5-disulfonate or its sodium salt [Salt II]
SAMe Residual Ratio (accelerated storage period 30 days): 97.5% | SAMe Residual Ratio (accelerated storage period 60 days): 95.2% | SAMe Residual Ratio (accelerated storage period 90 days): 94.5%
